According to ChEMBL document CHEMBL3991601, “The target landscape of clinical kinase drugs” (Science, 2017):
Activity calls are given as the source filed them.

Key:
[1] = target: Cyclin-dependent kinase 2 (Homo sapiens, UniProt P24941)
[2] = target: Mitogen-activated protein kinase 14 (Homo sapiens, UniProt Q16539)
[3] = target: Guanine nucleotide-binding protein G(i) subunit alpha-2 (Homo sapiens, UniProt P04899)
[4] = target: Cyclin-dependent kinase 17 (Homo sapiens, UniProt Q00537)
[5] = target: T1, Dual specificity protein kinase TTK (Homo sapiens, UniProt P33981)
T1 sequence (P33981 whole entry): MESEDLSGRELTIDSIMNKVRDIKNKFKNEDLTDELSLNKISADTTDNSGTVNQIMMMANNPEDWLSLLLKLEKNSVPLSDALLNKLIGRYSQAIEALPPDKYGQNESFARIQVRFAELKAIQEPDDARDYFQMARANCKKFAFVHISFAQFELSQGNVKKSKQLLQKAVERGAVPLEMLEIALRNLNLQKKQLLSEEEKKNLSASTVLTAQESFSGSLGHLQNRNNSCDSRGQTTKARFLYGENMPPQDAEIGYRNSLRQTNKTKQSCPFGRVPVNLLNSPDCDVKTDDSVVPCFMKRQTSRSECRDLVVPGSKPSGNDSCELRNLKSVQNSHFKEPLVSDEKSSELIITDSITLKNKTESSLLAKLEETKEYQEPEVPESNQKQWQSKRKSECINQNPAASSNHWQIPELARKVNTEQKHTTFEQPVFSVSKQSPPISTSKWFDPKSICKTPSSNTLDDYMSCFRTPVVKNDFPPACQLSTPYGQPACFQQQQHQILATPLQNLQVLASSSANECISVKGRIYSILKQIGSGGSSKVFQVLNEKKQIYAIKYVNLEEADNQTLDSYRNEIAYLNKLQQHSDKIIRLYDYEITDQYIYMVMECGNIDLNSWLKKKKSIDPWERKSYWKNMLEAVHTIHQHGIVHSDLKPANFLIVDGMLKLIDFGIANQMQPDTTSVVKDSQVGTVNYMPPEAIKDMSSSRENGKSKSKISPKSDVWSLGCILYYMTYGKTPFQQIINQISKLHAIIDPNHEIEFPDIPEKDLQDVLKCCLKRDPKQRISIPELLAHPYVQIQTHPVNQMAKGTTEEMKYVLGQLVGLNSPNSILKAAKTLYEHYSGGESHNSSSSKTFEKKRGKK

[6] = target: Dual specificity protein kinase CLK4 (Homo sapiens, UniProt Q9HAZ1)
Dual specificity protein kinase CLK4, sequence (Q9HAZ1 whole entry): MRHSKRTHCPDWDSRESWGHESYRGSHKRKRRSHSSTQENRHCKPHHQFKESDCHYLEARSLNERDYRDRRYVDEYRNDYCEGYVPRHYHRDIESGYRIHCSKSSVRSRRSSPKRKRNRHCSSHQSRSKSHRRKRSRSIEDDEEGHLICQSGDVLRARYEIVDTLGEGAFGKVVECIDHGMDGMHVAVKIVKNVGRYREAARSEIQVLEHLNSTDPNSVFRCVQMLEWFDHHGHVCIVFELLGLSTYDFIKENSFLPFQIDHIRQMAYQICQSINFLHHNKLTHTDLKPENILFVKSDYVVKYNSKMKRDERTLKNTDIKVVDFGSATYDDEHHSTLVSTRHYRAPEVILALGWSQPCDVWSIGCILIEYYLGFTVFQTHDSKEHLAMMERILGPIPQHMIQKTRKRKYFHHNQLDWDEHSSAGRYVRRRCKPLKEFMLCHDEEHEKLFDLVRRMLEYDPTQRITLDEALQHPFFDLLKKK

[7] = target: T2, Long-chain-fatty-acid--CoA ligase 5 (Homo sapiens, UniProt Q9ULC5)
T2 sequence (Q9ULC5 whole entry): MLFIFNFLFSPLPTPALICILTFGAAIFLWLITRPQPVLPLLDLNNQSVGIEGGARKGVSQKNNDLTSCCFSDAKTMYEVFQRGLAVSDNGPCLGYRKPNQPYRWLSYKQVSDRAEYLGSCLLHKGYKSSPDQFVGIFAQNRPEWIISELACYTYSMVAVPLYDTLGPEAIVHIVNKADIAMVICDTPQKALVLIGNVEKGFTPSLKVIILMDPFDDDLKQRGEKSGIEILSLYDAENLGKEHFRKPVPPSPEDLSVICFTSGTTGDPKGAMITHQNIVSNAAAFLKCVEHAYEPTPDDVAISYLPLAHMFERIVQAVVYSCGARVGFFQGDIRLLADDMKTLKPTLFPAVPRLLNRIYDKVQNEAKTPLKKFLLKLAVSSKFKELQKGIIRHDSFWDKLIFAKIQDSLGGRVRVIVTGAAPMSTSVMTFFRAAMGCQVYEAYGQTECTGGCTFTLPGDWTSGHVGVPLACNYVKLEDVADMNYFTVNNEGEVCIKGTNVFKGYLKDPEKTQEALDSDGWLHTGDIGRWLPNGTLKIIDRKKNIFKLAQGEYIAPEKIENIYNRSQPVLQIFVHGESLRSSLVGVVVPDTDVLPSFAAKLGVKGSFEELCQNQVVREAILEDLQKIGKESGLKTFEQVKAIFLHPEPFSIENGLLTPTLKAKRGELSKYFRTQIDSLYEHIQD

[8] = target: T3, Cyclin-dependent kinase-like 5 (Homo sapiens, UniProt O76039)
T3 sequence (O76039 whole entry): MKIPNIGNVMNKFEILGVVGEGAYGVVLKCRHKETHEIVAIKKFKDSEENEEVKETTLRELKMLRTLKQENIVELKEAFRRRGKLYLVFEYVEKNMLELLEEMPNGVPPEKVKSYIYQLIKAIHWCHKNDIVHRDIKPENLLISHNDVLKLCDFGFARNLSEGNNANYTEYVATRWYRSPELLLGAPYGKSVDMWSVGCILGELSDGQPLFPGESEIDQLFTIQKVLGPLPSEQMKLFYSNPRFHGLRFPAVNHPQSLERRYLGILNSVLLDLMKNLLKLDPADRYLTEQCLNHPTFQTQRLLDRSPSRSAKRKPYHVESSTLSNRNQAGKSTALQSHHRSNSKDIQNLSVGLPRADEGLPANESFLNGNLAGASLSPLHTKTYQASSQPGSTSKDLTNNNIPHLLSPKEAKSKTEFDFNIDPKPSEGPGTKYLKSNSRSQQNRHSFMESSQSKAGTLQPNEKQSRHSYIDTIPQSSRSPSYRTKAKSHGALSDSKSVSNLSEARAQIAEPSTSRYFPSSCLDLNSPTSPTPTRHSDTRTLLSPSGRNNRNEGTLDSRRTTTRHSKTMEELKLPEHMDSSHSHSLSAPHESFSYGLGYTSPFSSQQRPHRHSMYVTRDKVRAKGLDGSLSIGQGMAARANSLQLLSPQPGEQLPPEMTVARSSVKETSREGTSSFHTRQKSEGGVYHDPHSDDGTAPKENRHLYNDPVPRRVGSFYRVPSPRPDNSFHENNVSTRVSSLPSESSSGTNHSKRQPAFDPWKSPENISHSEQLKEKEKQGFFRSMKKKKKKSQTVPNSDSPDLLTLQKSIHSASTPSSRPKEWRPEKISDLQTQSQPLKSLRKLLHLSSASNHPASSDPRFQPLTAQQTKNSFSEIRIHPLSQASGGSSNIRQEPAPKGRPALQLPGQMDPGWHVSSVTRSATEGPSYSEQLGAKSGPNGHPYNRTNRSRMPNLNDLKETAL

[9] = target: Choline-phosphate cytidylyltransferase A (Homo sapiens, UniProt P49585)
Choline-phosphate cytidylyltransferase A, sequence (P49585 whole entry): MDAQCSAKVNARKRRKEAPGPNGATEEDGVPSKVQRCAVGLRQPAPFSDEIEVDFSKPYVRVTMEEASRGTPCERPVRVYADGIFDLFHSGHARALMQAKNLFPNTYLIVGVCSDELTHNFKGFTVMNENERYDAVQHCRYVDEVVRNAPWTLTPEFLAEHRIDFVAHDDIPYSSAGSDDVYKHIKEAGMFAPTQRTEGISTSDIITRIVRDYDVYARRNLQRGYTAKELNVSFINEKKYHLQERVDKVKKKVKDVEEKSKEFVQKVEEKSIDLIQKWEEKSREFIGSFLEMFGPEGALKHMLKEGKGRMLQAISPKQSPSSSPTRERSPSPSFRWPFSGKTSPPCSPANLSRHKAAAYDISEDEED

[10] = target: Misshapen-like kinase 1 (Homo sapiens, UniProt Q8N4C8)
Misshapen-like kinase 1, sequence (Q8N4C8 whole entry): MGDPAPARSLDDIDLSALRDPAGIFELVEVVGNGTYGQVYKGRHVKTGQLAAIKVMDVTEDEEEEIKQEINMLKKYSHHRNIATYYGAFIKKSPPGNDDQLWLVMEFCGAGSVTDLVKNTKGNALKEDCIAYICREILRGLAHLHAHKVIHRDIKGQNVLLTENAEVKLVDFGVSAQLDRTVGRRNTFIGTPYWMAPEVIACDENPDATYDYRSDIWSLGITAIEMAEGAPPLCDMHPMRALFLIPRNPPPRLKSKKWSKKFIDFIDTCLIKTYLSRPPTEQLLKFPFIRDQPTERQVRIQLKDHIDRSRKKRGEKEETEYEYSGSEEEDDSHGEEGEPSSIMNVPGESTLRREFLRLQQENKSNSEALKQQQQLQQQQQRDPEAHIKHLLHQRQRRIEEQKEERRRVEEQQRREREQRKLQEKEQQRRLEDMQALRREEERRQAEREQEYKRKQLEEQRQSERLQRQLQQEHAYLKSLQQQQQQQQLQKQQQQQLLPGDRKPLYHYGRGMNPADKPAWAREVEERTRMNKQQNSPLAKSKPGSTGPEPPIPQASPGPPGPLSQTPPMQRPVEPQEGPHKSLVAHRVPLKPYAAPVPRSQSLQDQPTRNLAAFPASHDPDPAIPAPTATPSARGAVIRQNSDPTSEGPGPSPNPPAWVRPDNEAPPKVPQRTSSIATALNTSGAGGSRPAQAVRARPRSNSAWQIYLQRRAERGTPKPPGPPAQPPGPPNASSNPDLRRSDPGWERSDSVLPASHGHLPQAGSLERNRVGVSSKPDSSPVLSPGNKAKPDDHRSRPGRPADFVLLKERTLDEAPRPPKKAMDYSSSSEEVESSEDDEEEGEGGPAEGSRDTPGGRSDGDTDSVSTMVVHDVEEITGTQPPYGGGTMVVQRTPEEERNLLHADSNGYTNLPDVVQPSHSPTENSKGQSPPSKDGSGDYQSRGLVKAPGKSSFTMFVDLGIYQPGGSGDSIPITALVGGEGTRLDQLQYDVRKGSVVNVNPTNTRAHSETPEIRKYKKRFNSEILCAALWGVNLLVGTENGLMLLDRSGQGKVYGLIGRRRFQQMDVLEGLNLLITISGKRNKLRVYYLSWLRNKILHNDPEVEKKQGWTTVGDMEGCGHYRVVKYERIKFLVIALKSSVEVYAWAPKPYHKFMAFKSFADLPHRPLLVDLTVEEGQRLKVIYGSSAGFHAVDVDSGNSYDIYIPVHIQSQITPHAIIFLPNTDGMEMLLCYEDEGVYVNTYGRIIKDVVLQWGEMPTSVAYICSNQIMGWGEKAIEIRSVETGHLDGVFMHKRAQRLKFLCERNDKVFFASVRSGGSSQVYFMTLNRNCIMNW
Further: in the data inactive means no Kd found up to 30 µM.

Guanine nucleotide-binding protein G(i) subunit alpha-2, sequence (P04899 whole entry): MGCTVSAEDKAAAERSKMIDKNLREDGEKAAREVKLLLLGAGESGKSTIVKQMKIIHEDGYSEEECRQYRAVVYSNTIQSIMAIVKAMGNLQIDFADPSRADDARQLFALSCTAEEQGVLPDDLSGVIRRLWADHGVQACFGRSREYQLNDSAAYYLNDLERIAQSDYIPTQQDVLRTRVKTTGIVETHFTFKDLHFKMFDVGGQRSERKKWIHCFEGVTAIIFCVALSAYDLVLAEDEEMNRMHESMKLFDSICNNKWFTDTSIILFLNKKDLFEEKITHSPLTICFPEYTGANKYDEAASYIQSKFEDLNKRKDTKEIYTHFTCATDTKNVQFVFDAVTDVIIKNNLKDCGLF
Cyclin-dependent kinase 17, sequence (Q00537 whole entry): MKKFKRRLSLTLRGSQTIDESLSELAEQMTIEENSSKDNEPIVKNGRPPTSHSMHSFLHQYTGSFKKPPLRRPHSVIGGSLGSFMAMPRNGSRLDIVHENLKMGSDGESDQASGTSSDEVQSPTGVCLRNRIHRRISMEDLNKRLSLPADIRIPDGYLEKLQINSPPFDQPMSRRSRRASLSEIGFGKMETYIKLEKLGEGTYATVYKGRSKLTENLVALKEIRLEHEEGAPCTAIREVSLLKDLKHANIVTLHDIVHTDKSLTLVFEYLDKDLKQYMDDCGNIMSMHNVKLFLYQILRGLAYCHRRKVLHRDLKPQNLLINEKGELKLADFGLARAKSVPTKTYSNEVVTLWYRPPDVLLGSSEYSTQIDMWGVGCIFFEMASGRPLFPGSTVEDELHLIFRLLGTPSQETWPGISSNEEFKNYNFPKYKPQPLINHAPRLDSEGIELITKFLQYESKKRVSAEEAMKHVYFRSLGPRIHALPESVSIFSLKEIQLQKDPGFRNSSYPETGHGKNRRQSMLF
Mitogen-activated protein kinase 14, sequence (Q16539 whole entry): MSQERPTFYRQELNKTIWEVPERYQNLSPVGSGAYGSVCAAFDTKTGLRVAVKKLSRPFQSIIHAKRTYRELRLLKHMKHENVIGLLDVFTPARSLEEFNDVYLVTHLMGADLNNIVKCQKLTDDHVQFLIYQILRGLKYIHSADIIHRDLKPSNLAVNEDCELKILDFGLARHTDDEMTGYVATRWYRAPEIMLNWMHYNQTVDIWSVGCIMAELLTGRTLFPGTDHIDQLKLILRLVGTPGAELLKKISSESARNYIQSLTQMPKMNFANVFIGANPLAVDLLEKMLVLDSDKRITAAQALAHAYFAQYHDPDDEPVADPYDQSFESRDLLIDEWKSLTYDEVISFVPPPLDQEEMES

Structure (SMILES)	Kd [1]	Kd [2]	Kd [3]	Kd [4]	Kd [5]	Kd [6]	Kd [7]	Kd [8]	Kd [9]	Kd [10]
Cc1ccc(S(=O)(=O)Nc2nc3ccccc3nc2Nc2ccc3nsnc3c2)cc1	> 30 µM (inactive)	> 30 µM (inactive)	> 30 µM (inactive)	> 30 µM (inactive)	> 30 µM (inactive)	> 30 µM (inactive)	> 30 µM (inactive)	> 30 µM (inactive)		
Cc1cc(-c2cc(O)ccc2Cl)cc2nnc(Nc3ccc(OCCN4CCCC4)cc3)nc12	> 30 µM (inactive)	> 30 µM (inactive)		> 30 µM (inactive)	> 30 µM (inactive)		> 30 µM (inactive)	> 30 µM (inactive)		
CCN1CCN(Cc2ccc(-c3cc4c(N[C@H](C)c5ccccc5)ncnc4[nH]3)cc2)CC1 [AEE-788]	> 30 µM (inactive)	> 30 µM (inactive)	> 30 µM (inactive)	> 30 µM (inactive)	> 30 µM (inactive)		> 30 µM (inactive)		> 30 µM (inactive)	
CNS(=O)(=O)Nc1nccc(Cc2c(C)c3ccc(Oc4ncccn4)cc3oc2=O)c1F [AVUTOMETINIB]	> 30 µM (inactive)	> 30 µM (inactive)	> 30 µM (inactive)	> 30 µM (inactive)	> 30 µM (inactive)	> 30 µM (inactive)				
Cc1cc([C@@H](C)Nc2ccccc2C(=O)O)c2nc(N3CCOCC3)cc(=O)n2c1 [AZD-6482]	> 30 µM (inactive)	> 30 µM (inactive)	> 30 µM (inactive)	> 30 µM (inactive)	> 30 µM (inactive)	> 30 µM (inactive)	> 30 µM (inactive)		> 30 µM (inactive)	
Cc1ccc(NC(=O)c2ccc(CN3CC[C@H](N(C)C)C3)c(C(F)(F)F)c2)cc1Nc1nccc(-c2cncnc2)n1 [BAFETINIB]	> 30 µM (inactive)	0.536 µM (active)	> 30 µM (inactive)	> 30 µM (inactive)	> 30 µM (inactive)	> 30 µM (inactive)	> 30 µM (inactive)	> 30 µM (inactive)	> 30 µM (inactive)	
Cc1cc2c(F)c(Oc3ncnn4cc(OC[C@@H](C)OC(=O)[C@H](C)N)c(C)c34)ccc2[nH]1 [BRIVANIB ALANINATE]	> 30 µM (inactive)	> 30 µM (inactive)	> 30 µM (inactive)	> 30 µM (inactive)	> 30 µM (inactive)		> 30 µM (inactive)	> 30 µM (inactive)	> 30 µM (inactive)	
O=C(c1ccc(F)c(F)c1Nc1ccc(I)cc1F)N1CC(O)([C@@H]2CCCCN2)C1 [COBIMETINIB]	> 30 µM (inactive)	> 30 µM (inactive)		> 30 µM (inactive)		> 30 µM (inactive)	> 30 µM (inactive)	> 30 µM (inactive)	> 30 µM (inactive)	> 30 µM (inactive)
Cc1nc(N)sc1-c1ccnc(Nc2ccc(N3CCOCC3)cc2)n1 [CYC-116]		> 30 µM (inactive)		0.007 µM (active)	0.016 µM				> 30 µM (inactive)	
Cc1cc(Nc2cc(N3CCN(C)CC3)nc(/C=C/c3ccccc3)n2)n[nH]1 [ENMD-2076]			> 30 µM (inactive)		> 30 µM (inactive)		> 30 µM (inactive)		> 30 µM (inactive)	
CO[C@H]1C[C@@H]2CC[C@@H](C)[C@@](O)(O2)C(=O)C(=O)N2CCCC[C@H]2C(=O)O[C@H]([C@H](C)C[C@@H]2CC[C@@H](OCCO)[C@H](OC)C2)CC(=O)[C@H](C)/C=C(\C)[C@@H](O)[C@@H](OC)C(=O)[C@H](C)C[C@H](C)/C=C/C=C/C=C/1C [EVEROLIMUS]	> 30 µM (inactive)	> 30 µM (inactive)	> 30 µM (inactive)	> 30 µM (inactive)	> 30 µM (inactive)	> 30 µM (inactive)	> 30 µM (inactive)		> 30 µM (inactive)	
O=C(O)[C@]1(Cc2cccc(Nc3nccs3)n2)CC[C@@H](Oc2cccc(Cl)c2F)CC1 [MK-5108]	> 30 µM (inactive)	> 30 µM (inactive)	> 30 µM (inactive)	> 30 µM (inactive)		> 30 µM (inactive)		> 30 µM (inactive)	> 30 µM (inactive)	> 30 µM (inactive)
CNC(=O)c1cc(Oc2ccc(NC(=O)Nc3ccc(Cl)c(C(F)(F)F)c3)c(F)c2)ccn1 [REGORAFENIB]	> 30 µM (inactive)	0.705 µM (active)	> 30 µM (inactive)	0.719 µM (active)	3.92 µM	> 30 µM (inactive)	> 30 µM (inactive)		> 30 µM (inactive)	
CN(C)C(=O)c1cc2cnc(Nc3ccc(N4CCNCC4)cn3)nc2n1C1CCCC1 [RIBOCICLIB]		> 30 µM (inactive)	> 30 µM (inactive)		> 30 µM (inactive)	> 30 µM (inactive)		> 30 µM (inactive)	> 30 µM (inactive)	
C[C@@H]1CN(Cc2ccc(F)cc2)[C@@H](C)CN1C(=O)c1cc2c(C(=O)C(=O)N(C)C)cn(C)c2cc1Cl [TALMAPIMOD]	> 30 µM (inactive)		> 30 µM (inactive)	> 30 µM (inactive)	> 30 µM (inactive)	> 30 µM (inactive)	> 30 µM (inactive)	> 30 µM (inactive)		
COc1cc2nccc(Oc3ccc(NC(=O)Nc4cc(C)on4)c(Cl)c3)c2cc1OC [TIVOZANIB]	> 30 µM (inactive)	> 30 µM (inactive)	> 30 µM (inactive)	> 30 µM (inactive)		> 30 µM (inactive)	> 30 µM (inactive)	> 30 µM (inactive)	> 30 µM (inactive)	> 30 µM (inactive)
CC[C@@H]1C(=O)N(C)c2cnc(Nc3ccc(C(=O)N[C@H]4CC[C@H](N5CCN(CC6CC6)CC5)CC4)cc3OC)nc2N1C(C)C [VOLASERTIB]	> 30 µM (inactive)	> 30 µM (inactive)	> 30 µM (inactive)	> 30 µM (inactive)		> 30 µM (inactive)	> 30 µM (inactive)		> 30 µM (inactive)	> 30 µM (inactive)
